Experimental data published in PubChem BioAssay (NCI).
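Step 1: Grow cells in 96-well plates. Step 2: Expose to compound for 48 hours at 5 concentrations. Step 3: Interpolate endpoints linearly; if unreached, use highest concentration. Definition used: TGI = concentration required for complete inhibition of growth.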

What was measured:
Assay in all cases: NCI anticancer screen, dose series, 48 h
786-0 renal = tested on: 786-0 renal
A498 renal = tested on: A498 renal
A549 NSCLC = tested on: A549 NSCLC
ACHN renal = tested on: ACHN renal
CAKI-1 renal = tested on: CAKI-1 renal
CCRF-CEM leukemia = tested on: CCRF-CEM leukemia
COLO 205 colon = tested on: COLO 205 colon
DMS 114 small cell lung = tested on: DMS 114 small cell lung
HCT-116 colon = tested on: HCT-116 colon
HCT-15 colon = tested on: HCT-15 colon
HL-60(TB) leukemia = tested on: HL-60(TB) leukemia
HOP-18 NSCLC = tested on: HOP-18 NSCLC
HOP-62 NSCLC = tested on: HOP-62 NSCLC
HOP-92 NSCLC = tested on: HOP-92 NSCLC
HT29 colon = tested on: HT29 colon
IGROV1 ovarian = tested on: IGROV1 ovarian
K-562 leukemia = tested on: K-562 leukemia
KM12 colon = tested on: KM12 colon
KM20L2 colon = tested on: KM20L2 colon
LOX IMVI melanoma = tested on: LOX IMVI melanoma
LXFL 529 NSCLC = tested on: LXFL 529 NSCLC
M14 melanoma = tested on: M14 melanoma
M19-MEL melanoma = tested on: M19-MEL melanoma
MALME-3M melanoma = tested on: MALME-3M melanoma
MOLT-4 leukemia = tested on: MOLT-4 leukemia
NCI-H226 lung = tested on: NCI-H226 lung
NCI-H23 lung = tested on: NCI-H23 lung
NCI-H460 lung = tested on: NCI-H460 lung
NCI-H522 lung = tested on: NCI-H522 lung
OVCAR-3 ovarian = tested on: OVCAR-3 ovarian
OVCAR-4 ovarian = tested on: OVCAR-4 ovarian
OVCAR-5 ovarian = tested on: OVCAR-5 ovarian
OVCAR-8 ovarian = tested on: OVCAR-8 ovarian
RPMI-8226 leukemia = tested on: RPMI-8226 leukemia
SF-268 CNS = tested on: SF-268 CNS
SF-295 CNS = tested on: SF-295 CNS
SF-539 CNS = tested on: SF-539 CNS
SK-MEL-2 melanoma = tested on: SK-MEL-2 melanoma
SK-MEL-28 melanoma = tested on: SK-MEL-28 melanoma
SK-MEL-5 melanoma = tested on: SK-MEL-5 melanoma
SK-OV-3 ovarian = tested on: SK-OV-3 ovarian
SN12C renal = tested on: SN12C renal
SNB-19 CNS = tested on: SNB-19 CNS
SNB-75 CNS = tested on: SNB-75 CNS
SNB-78 CNS = tested on: SNB-78 CNS
SR leukemia = tested on: SR leukemia
SW-620 colon = tested on: SW-620 colon
TK-10 renal = tested on: TK-10 renal
U251 CNS = tested on: U251 CNS
UACC-257 melanoma = tested on: UACC-257 melanoma
UACC-62 melanoma = tested on: UACC-62 melanoma
UO-31 renal = tested on: UO-31 renal
DLD-1 colon = tested on: DLD-1 colon
DMS 273 small cell lung = tested on: DMS 273 small cell lung
EKVX NSCLC = tested on: EKVX NSCLC
HCC-2998 colon = tested on: HCC-2998 colon
RXF 393 renal = tested on: RXF 393 renal
XF 498 CNS = tested on: XF 498 CNS

With `O=C(Nc1c(O)[nH]c(=S)[nH]c1=O)c1ccco1` the TGI (786-0 renal) was greater than 100 µM, the TGI (A498 renal) was greater than 100 µM and the TGI (A549 NSCLC) was greater than 100 µM. For the same molecule, the TGI (ACHN renal) was greater than 100 µM, the TGI (CAKI-1 renal) was greater than 100 µM and the TGI (CCRF-CEM leukemia) was greater than 100 µM. For the same molecule, the TGI (COLO 205 colon) was greater than 100 µM, the TGI (DMS 114 small cell lung) was greater than 100 µM and the TGI (HCT-116 colon) was greater than 100 µM. For the same molecule, the TGI (HCT-15 colon) was greater than 100 µM, the TGI (HL-60(TB) leukemia) was greater than 100 µM and the TGI (HOP-18 NSCLC) was greater than 100 µM. It also gave a TGI (HOP-62 NSCLC) greater than 100 µM, a TGI (HOP-92 NSCLC) greater than 100 µM and a TGI (HT29 colon) greater than 100 µM. For the same molecule, the TGI (IGROV1 ovarian) was greater than 100 µM, the TGI (K-562 leukemia) was greater than 100 µM and the TGI (KM12 colon) was greater than 100 µM. For the same molecule, the TGI (KM20L2 colon) was greater than 100 µM, the TGI (LOX IMVI melanoma) was greater than 100 µM and the TGI (LXFL 529 NSCLC) was greater than 100 µM. It also gave a TGI (M14 melanoma) greater than 100 µM, a TGI (M19-MEL melanoma) greater than 100 µM and a TGI (MALME-3M melanoma) greater than 100 µM. It also gave a TGI (MOLT-4 leukemia) greater than 100 µM, a TGI (NCI-H226 lung) greater than 100 µM and a TGI (NCI-H23 lung) greater than 100 µM. It also gave a TGI (NCI-H460 lung) greater than 100 µM, a TGI (NCI-H522 lung) greater than 100 µM and a TGI (OVCAR-3 ovarian) greater than 100 µM. For the same molecule, the TGI (OVCAR-4 ovarian) was greater than 100 µM, the TGI (OVCAR-5 ovarian) was greater than 100 µM and the TGI (OVCAR-8 ovarian) was greater than 100 µM. It also gave a TGI (RPMI-8226 leukemia) greater than 100 µM, a TGI (SF-268 CNS) greater than 100 µM and a TGI (SF-295 CNS) greater than 100 µM. For the same molecule, the TGI (SF-539 CNS) was greater than 100 µM, the TGI (SK-MEL-2 melanoma) was greater than 100 µM and the TGI (SK-MEL-28 melanoma) was greater than 100 µM. For the same molecule, the TGI (SK-MEL-5 melanoma) was greater than 100 µM, the TGI (SK-OV-3 ovarian) was greater than 100 µM and the TGI (SN12C renal) was greater than 100 µM. The TGI (SNB-19 CNS) was greater than 100 µM, the TGI (SNB-75 CNS) was greater than 100 µM and the TGI (SNB-78 CNS) was greater than 100 µM. It also gave a TGI (SR leukemia) greater than 100 µM, a TGI (SW-620 colon) greater than 100 µM and a TGI (TK-10 renal) greater than 100 µM. For the same molecule, the TGI (U251 CNS) was greater than 100 µM, the TGI (UACC-257 melanoma) was greater than 100 µM and the TGI (UACC-62 melanoma) was greater than 100 µM. The TGI (UO-31 renal) was greater than 100 µM.

`Cn1cc/c(=N\N=c2/ccn(C)c3ccccc23)c2ccccc21` showed a TGI (786-0 renal) of 30.1 µM, a TGI (A498 renal) of 37.2 µM and a TGI (A549 NSCLC) of 30.6 µM. The TGI (ACHN renal) was 27 µM, the TGI (CAKI-1 renal) was 33.2 µM and the TGI (CCRF-CEM leukemia) was 24.5 µM. It also gave a TGI (COLO 205 colon) of 22.1 µM, a TGI (DLD-1 colon) of 29.4 µM and a TGI (DMS 114 small cell lung) of 27.7 µM. For the same molecule, the TGI (DMS 273 small cell lung) was 30 µM, the TGI (EKVX NSCLC) was 27.8 µM and the TGI (HCC-2998 colon) was 29.2 µM. The TGI (HCT-116 colon) was 23.4 µM, the TGI (HCT-15 colon) was 29.2 µM and the TGI (HL-60(TB) leukemia) was 21.6 µM. It also gave a TGI (HOP-62 NSCLC) of 31.6 µM, a TGI (HT29 colon) of 31.7 µM and a TGI (K-562 leukemia) of 22.2 µM. It also gave a TGI (KM12 colon) of 25.6 µM, a TGI (KM20L2 colon) of 28.2 µM and a TGI (LOX IMVI melanoma) of 24.2 µM. For the same molecule, the TGI (LXFL 529 NSCLC) was 27.2 µM, the TGI (M14 melanoma) was 30.8 µM and the TGI (M19-MEL melanoma) was 34.2 µM. For the same molecule, the TGI (MALME-3M melanoma) was 31 µM, the TGI (MOLT-4 leukemia) was 63.9 µM and the TGI (NCI-H226 lung) was 25.8 µM. It also gave a TGI (NCI-H23 lung) of 27.4 µM, a TGI (NCI-H460 lung) of 25 µM and a TGI (NCI-H522 lung) of 27.8 µM. For the same molecule, the TGI (OVCAR-3 ovarian) was 24 µM, the TGI (OVCAR-4 ovarian) was 25.5 µM and the TGI (OVCAR-5 ovarian) was 30.3 µM. The TGI (OVCAR-8 ovarian) was 28.5 µM, the TGI (RXF 393 renal) was 27.5 µM and the TGI (SF-268 CNS) was 39.2 µM. The TGI (SF-295 CNS) was 30.9 µM, the TGI (SF-539 CNS) was 29.4 µM and the TGI (SK-MEL-28 melanoma) was 28.5 µM. It also gave a TGI (SK-MEL-5 melanoma) of 29.4 µM, a TGI (SK-OV-3 ovarian) of 31 µM and a TGI (SN12C renal) of 33 µM. For the same molecule, the TGI (SNB-19 CNS) was 36.3 µM, the TGI (SNB-75 CNS) was 61.8 µM and the TGI (SNB-78 CNS) was 33.3 µM. For the same molecule, the TGI (SR leukemia) was 47.3 µM, the TGI (TK-10 renal) was 36.4 µM and the TGI (U251 CNS) was 29.1 µM. The TGI (UACC-257 melanoma) was 27.3 µM, the TGI (UACC-62 melanoma) was 29.8 µM and the TGI (UO-31 renal) was 26.3 µM. For the same molecule, the TGI (XF 498 CNS) was 27.1 µM.

`COC1CC(Br)(C#N)C1` (configuration not stated) was tested, and the TGI (786-0 renal) was greater than 100 µM, the TGI (A549 NSCLC) was greater than 100 µM and the TGI (CAKI-1 renal) was greater than 100 µM. It also gave a TGI (COLO 205 colon) greater than 100 µM, a TGI (DLD-1 colon) greater than 100 µM and a TGI (DMS 114 small cell lung) greater than 100 µM. The TGI (EKVX NSCLC) was greater than 100 µM, the TGI (HCC-2998 colon) was greater than 100 µM and the TGI (HCT-116 colon) was greater than 100 µM. It also gave a TGI (HCT-15 colon) greater than 100 µM, a TGI (HL-60(TB) leukemia) greater than 100 µM and a TGI (HOP-18 NSCLC) greater than 100 µM. It also gave a TGI (HOP-62 NSCLC) greater than 100 µM, a TGI (HOP-92 NSCLC) greater than 100 µM and a TGI (HT29 colon) greater than 100 µM. The TGI (IGROV1 ovarian) was greater than 100 µM, the TGI (K-562 leukemia) was greater than 100 µM and the TGI (KM12 colon) was greater than 100 µM. It also gave a TGI (KM20L2 colon) greater than 100 µM, a TGI (M14 melanoma) greater than 100 µM and a TGI (M19-MEL melanoma) greater than 100 µM. The TGI (MALME-3M melanoma) was greater than 100 µM, the TGI (MOLT-4 leukemia) was greater than 100 µM and the TGI (NCI-H23 lung) was greater than 100 µM. The TGI (OVCAR-3 ovarian) was greater than 100 µM, the TGI (OVCAR-4 ovarian) was greater than 100 µM and the TGI (OVCAR-5 ovarian) was greater than 100 µM. It also gave a TGI (OVCAR-8 ovarian) greater than 100 µM, a TGI (RPMI-8226 leukemia) greater than 100 µM and a TGI (RXF 393 renal) greater than 100 µM. It also gave a TGI (SF-268 CNS) greater than 100 µM, a TGI (SF-295 CNS) greater than 100 µM and a TGI (SF-539 CNS) greater than 100 µM. For the same molecule, the TGI (SK-MEL-2 melanoma) was greater than 100 µM, the TGI (SK-MEL-28 melanoma) was greater than 100 µM and the TGI (SK-MEL-5 melanoma) was greater than 100 µM. For the same molecule, the TGI (SK-OV-3 ovarian) was greater than 100 µM, the TGI (SNB-78 CNS) was greater than 100 µM and the TGI (SR leukemia) was greater than 100 µM. For the same molecule, the TGI (TK-10 renal) was greater than 100 µM, the TGI (U251 CNS) was greater than 100 µM and the TGI (UACC-62 melanoma) was greater than 100 µM. For the same molecule, the TGI (UO-31 renal) was greater than 100 µM.
